Test results: PubChem BioAssay AID330 (DTP/NCI, 2004)
Several values for one entry are separate records, joined by “and”; a condition that tells them apart may be missing. Equal values may be shown once. Toxic doses and inconclusive results are not listed. Rule for the calls: active = survival T/C of 150% or more; inactive = T/C below 125% in these data.

Test system: P388 leukemia ip, CD2F1 mice, survival T/C
Experiment: NCI In Vivo Anticancer Drug Screen. Data for tumor model P388 Leukemia (intraperitoneal) in CD2F1 (CDF1) mice
Conditions: endpoint: median survival time, higher = longer survival
Procedure, shortened: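 Mice carrying the transplanted tumor received test compound or vehicle. Survival was recorded in each group, and the value is the treated-group measurement divided by that of the vehicle-treated control group.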

[1] = dose: 60.0 mg/kg/injection, schedule: Q01DX005 (ip), vehicle: saline with Tween-80
[2] = dose: 120.0 mg/kg/injection, schedule: Q01DX005 (ip), vehicle: saline with Tween-80
[3] = dose: 240.0 mg/kg/injection, schedule: Q01DX005 (ip), vehicle: saline with Tween-80
[4] = dose: 50.0 mg/kg/injection, schedule: Q01DX005 (ip), vehicle: Klucel (hydroxypropylcellulose) (HPC)
[5] = dose: 100.0 mg/kg/injection, schedule: Q01DX005 (ip), vehicle: Klucel (hydroxypropylcellulose) (HPC)
[6] = dose: 200.0 mg/kg/injection, schedule: Q01DX005 (ip), vehicle: Klucel (hydroxypropylcellulose) (HPC)
[7] = dose: 50.0 mg/kg/injection, schedule: Q01DX009 (ip), vehicle: saline with Tween-80
[8] = dose: 100.0 mg/kg/injection, schedule: Q01DX009 (ip), vehicle: saline with Tween-80
[9] = dose: 200.0 mg/kg/injection, schedule: Q01DX009 (ip), vehicle: saline with Tween-80
[10] = dose: 100.0 mg/kg/injection, schedule: Q04DX002 (ip), vehicle: saline
[11] = dose: 200.0 mg/kg/injection, schedule: Q04DX002 (ip), vehicle: saline
[12] = dose: 50.0 mg/kg/injection, schedule: Q01DX009 (ip), vehicle: suspension in saline
[13] = dose: 100.0 mg/kg/injection, schedule: Q01DX009 (ip), vehicle: suspension in saline
[14] = dose: 50.0 mg/kg/injection, schedule: Q01DX005 (ip), vehicle: saline
[15] = dose: 100.0 mg/kg/injection, schedule: Q01DX005 (ip), vehicle: saline
[16] = dose: 12.5 mg/kg/injection, schedule: Q01DX009 (ip), vehicle: saline
[17] = dose: 25.0 mg/kg/injection, schedule: Q01DX009 (ip), vehicle: saline

Measured: T/C

COC(=O)c1c(O)c2c(c3c1OC(C)(C)CC3)OC(C)(C)CC2
inactive: dose: 60.0 mg/kg/injection, schedule: Q01DX005 (ip), vehicle: Klucel (hydroxypropylcellulose) (HPC) 93 % of control | [1] 90 % of control | dose: 120.0 mg/kg/injection, schedule: Q01DX005 (ip), vehicle: Klucel (hydroxypropylcellulose) (HPC) 92 % of control | [2] 91 % of control | dose: 240.0 mg/kg/injection, schedule: Q01DX005 (ip), vehicle: Klucel (hydroxypropylcellulose) (HPC) 90 % of control

S=C(CC(=S)N1CCOCC1)N1CCOCC1
inactive: [1] 103 % of control | [2] 89 % of control | [3] 97 % of control

CC1(C)C=Cc2c(ccc3c(=O)c(-c4ccccc4)coc23)O1
inactive: [1] 94 % of control | [2] 98 % of control | [3] 93 % of control

O=C1C=CC2(C=C1)CCN(C(=O)C(F)(F)F)Cc1cc3c(cc12)OCO3
inactive: dose: 100.0 mg/kg/injection, schedule: Q04DX002 (ip), vehicle: saline with Tween-80 97 % of control | dose: 200.0 mg/kg/injection, schedule: Q04DX002 (ip), vehicle: saline with Tween-80 91 % of control | dose: 400.0 mg/kg/injection, schedule: Q04DX002 (ip), vehicle: saline with Tween-80 93 % of control

COC(=O)C1=C(C(=O)OC)C2(c3ccccc3-c3ccccc32)C2C=CC=NN12 (stereo not drawn)
inactive: [4] 100 % of control | [5] 103 % of control | [6] 100 % of control

CCC(/C=C/c1ccccc1)=N\Nc1ccc(C)cc1
inactive: [1] 107 % of control | [2] 117 % of control | [3] 114 % of control

CC(=O)c1c(C)cc2cc(O)cc(OC3OC(CO)C(O)C(O)C3O)c2c1O (stereo not drawn)
inactive: dose: 1.5 mg/kg/injection, schedule: Q01DX005 (ip), vehicle: saline + alcohol 96 % of control | dose: 3.0 mg/kg/injection, schedule: Q01DX005 (ip), vehicle: saline + alcohol 103 % of control | dose: 6.0 mg/kg/injection, schedule: Q01DX005 (ip), vehicle: saline + alcohol 92 % of control | dose: 12.0 mg/kg/injection, schedule: Q01DX005 (ip), vehicle: saline + alcohol 108 % of control and 94 % of control | dose: 24.0 mg/kg/injection, schedule: Q01DX005 (ip), vehicle: saline + alcohol 100 % of control | dose: 48.0 mg/kg/injection, schedule: Q01DX005 (ip), vehicle: saline + alcohol 99 % of control

c1ccc2[nH]c(N=Nc3cccc4c(N=Nc5cc6ccccc6[nH]5)cccc34)cc2c1
inactive: [7] 100 % of control | [8] 100 % of control | [9] 103 % of control

CCn1c(=O)c(C#N)c2n(CC)c3cc(C)c(C)cc3n2c1=O
inactive: [1] 90 % of control | [2] 86 % of control | [3] 86 % of control

OP12(OC(C(F)(F)F)(C(F)(F)F)c3ccccc31)OC(C(F)(F)F)(C(F)(F)F)c1ccccc12
inactive: dose: 100.0 mg/kg/injection, schedule: Q04DX002 (ip), vehicle: Klucel (hydroxypropylcellulose) (HPC) 97 % of control | dose: 200.0 mg/kg/injection, schedule: Q04DX002 (ip), vehicle: Klucel (hydroxypropylcellulose) (HPC) 98 % of control

CC(=O)c1cc(C(=O)O)c(O)c2ccccc12
inactive: dose: 50.0 mg/kg/injection, schedule: Q01DX009 (ip), vehicle: Klucel (hydroxypropylcellulose) (HPC) 90 % of control | dose: 100.0 mg/kg/injection, schedule: Q01DX009 (ip), vehicle: Klucel (hydroxypropylcellulose) (HPC) 92 % of control

Cc1cc(N)c(C)c(C)c1O
inactive: dose: 25.0 mg/kg/injection, schedule: Q01DX009 (ip), vehicle: saline with Tween-80 113 % of control | dose: 25.0 mg/kg/injection, schedule: Q04DX003 (ip), vehicle: saline with Tween-80 100 % of control | [7] 118 % of control | dose: 50.0 mg/kg/injection, schedule: Q04DX003 (ip), vehicle: saline with Tween-80 110 % of control | dose: 100.0 mg/kg/injection, schedule: Q04DX003 (ip), vehicle: saline with Tween-80 110 % of control

Cc1cc2nc(-c3cc4cc(Cl)cc(Cl)c4oc3=O)[nH]c2cc1C
inactive: dose: 25.0 mg/kg/injection, schedule: Q01DX005 (ip), vehicle: Klucel (hydroxypropylcellulose) (HPC) 98 % of control | [4] 95 % of control | [5] 96 % of control | [6] 96 % of control

C=C1CC2(CCCCC2Cc2ccccc2)OC1=O (stereo not drawn)
inactive: [10] 100 % of control | [11] 101 % of control | dose: 400.0 mg/kg/injection, schedule: Q04DX002 (ip), vehicle: saline 99 % of control

CCOC(=O)c1c(C)cc2c(CO)n[nH]c(=O)c2c1C
inactive: [7] 102 % of control | [8] 100 % of control | [9] 99 % of control

Clc1ccc(N2C(c3ccccc3)=N[C@@H](N3CCOCC3)[C@@H]2N2CCOCC2)cc1
inactive: [4] 100 % of control | [5] 100 % of control | [6] 105 % of control

CC(C)c1ccc(C2NC(C(=O)O)CS2)cc1 (stereo not drawn)
inactive: [12] 93 % of control | [13] 90 % of control

CC(=O)OC1CSS(=O)CC1OC(C)=O (stereo not drawn)
inactive: [10] 100 % of control | [11] 109 % of control

O=C1CCC(C(=O)O)N1 (stereo not drawn)
inactive: dose: 100.0 mg/kg/injection, schedule: Q04DX003 (ip), vehicle: saline 95 % of control | dose: 200.0 mg/kg/injection, schedule: Q04DX003 (ip), vehicle: saline 97 % of control | dose: 400.0 mg/kg/injection, schedule: Q04DX003 (ip), vehicle: saline 94 % of control

CC(C)NC1(N(C)C)N=C(N(C)C)N=C(N(C)C)O1 (stereo not drawn)
inactive: [14] 101 % of control | [15] 101 % of control

CCCCn1c2c(c3ccccc3c1=O)C(=O)c1ccccc1-2
inactive: dose: 50.0 mg/kg/injection, schedule: Q01DX005 (ip), vehicle: saline with Tween-80 92 % of control | dose: 100.0 mg/kg/injection, schedule: Q01DX005 (ip), vehicle: saline with Tween-80 91 % of control | dose: 200.0 mg/kg/injection, schedule: Q01DX005 (ip), vehicle: saline with Tween-80 88 % of control

CCCCCCCCOC(=O)c1ccc(I)cc1
inactive: [7] 97 % of control | [8] 101 % of control | [9] 97 % of control

CC(CO)(CO)N(CCO)CCO
inactive: [14] 101 % of control | [15] 101 % of control | dose: 200.0 mg/kg/injection, schedule: Q01DX005 (ip), vehicle: saline 99 % of control

CC(/C=C/c1ccccc1)=N\Nc1ccccc1
inactive: [7] 118 % of control | [8] 110 % of control and 112 % of control | dose: 132.0 mg/kg/injection, schedule: Q01DX009 (ip), vehicle: saline with Tween-80 100 % of control | [9] 100 % of control and 110 % of control and 121 % of control | dose: 300.0 mg/kg/injection, schedule: Q01DX009 (ip), vehicle: saline with Tween-80 107 % of control | dose: 400.0 mg/kg/injection, schedule: Q01DX009 (ip), vehicle: saline with Tween-80 106 % of control

COc1ccc(CSC(=S)Nc2cc(Cl)c(Cl)cc2Cl)cc1
inactive: [16] 88 % of control | [17] 97 % of control | dose: 50.0 mg/kg/injection, schedule: Q01DX009 (ip), vehicle: saline 99 % of control | [12] 93 % of control | [13] 103 % of control

COc1cc(C(O)(CCN2CCCCC2)c2ccc3c(c2)OCO3)cc(OC)c1OC (stereo not drawn)
inactive: dose: 50.0 mg/kg/injection, schedule: Q01DX005 (ip), vehicle: saline + Tween-80 + alcohol 94 % of control | dose: 100.0 mg/kg/injection, schedule: Q01DX005 (ip), vehicle: saline + Tween-80 + alcohol 100 % of control | dose: 200.0 mg/kg/injection, schedule: Q01DX005 (ip), vehicle: saline + Tween-80 + alcohol 93 % of control

CC(=O)c1ccc[n+](Cc2c(Cl)cccc2Cl)c1
inactive: dose: 6.25 mg/kg/injection, schedule: Q01DX009 (ip), vehicle: saline 101 % of control | [16] 100 % of control and 104 % of control | [17] 101 % of control and 114 % of control

O=C(/N=C1\N=Nc2nc(C(C(=O)c3ccc(F)cc3)c3nc4n(c3O)/C(=N/C(=O)Nc3ccc(Cl)cc3)N=N4)c(O)n21)Nc1ccc(Cl)cc1 (stereo not drawn)
inactive: [1] 91 % of control | [2] 91 % of control | [3] 88 % of control

CCN(CC)CCSCCCNc1cc(OC)cc2cccnc12
inactive: dose: 12.5 mg/kg/injection, schedule: Q01DX005 (ip), vehicle: saline 93 % of control | dose: 25.0 mg/kg/injection, schedule: Q01DX005 (ip), vehicle: saline 88 % of control | [14] 95 % of control and 98 % of control

CCCCCCCOC(=O)c1cc2cc(C(CC)C(CC)c3ccc(O)cc3)ccc2oc1=O (stereo not drawn)
inactive: [1] 105 % of control | [2] 92 % of control | [3] 95 % of control
